Patent US20230075365A1, “HERBICIDE COMBINATIONS COMPRISING GLUFOSINATE AND SELECTED PPO INHIBITORS” (BASF SE, priority 2020, published 2023)

Assays:
Velvetleaf = assay: Greenhouse post emergence treatment (Acifluorfen test method), herbicidal activity against Velvetleaf; assay type: in vivo, Abutilon theophrasti
Procedure: Pots with 0.8 L of volume were filled with soil (Sungro Horticulture, Agawam, Mass. 01001) to grow one plant per pot in the greenhouse until the desired developmental stage. Environmental conditions inside the greenhouse were set up for 30° C., 50% relative humidity, and 12 hr light day-1 with natural sunlight or 760 umol m-1 s-1 PAR (Photosynthetically active radiation) for cloudy days. Glufosinate applications were always performed in full sunlight to achieve maximum activity Pots with test plants grown to 3.5 to 4.5 inch (8.9 to 11.4 cm) tall were treated with the herbicidal compositions, which were obtained by diluting commercially available formulations with deionized water to desired concentration, and then sprayed using finely distributing nozzles on to the plants. The test period extended over 21 days after treatment (DAT). During this time, the plants were tended and their response to the individual treatments was evaluated.
The evaluation was done by calculating using the following Colby equation, wherein X was the effect in percent using acifluorfen at an application rate a, Y was the effect in percent using glufosinate at application rate b, and E was the expected effect (in %) of acifluorfen plus glufosinate at application rates a+b.
The value E corresponds to the effect (plant damage or injury) which is to be expected if the activity of the individual compounds is just additive. If the observed effect is higher than the value E calculated according to Colby, a synergistic effect is present.
The evaluation for the damage caused by the chemical compositions was carried out using a scale from 0 to 100%, compared to the untreated control plants. Here, 0 means no damage and 100 means complete destruction of the plants.
Adjuvants of ammonium sulfate (as AMS Liquid) and non-ionic surfactant (NIS, here as Induce) at rates of 1680 g/ha and 0.25% (v/v), respectively, were added in all treatments with Acifluorfen.

Waterhemp = assay: Greenhouse post emergence treatment, visual herbicidal activity against Waterhemp; assay type: in vivo, Amaranthus tuberculatus; details: scale from 0 to 100
Text: (§1) Synergism can be described as an interaction where the combined effect of two or more compounds is greater than the sum of the individual effects of each of the compounds. The presence of a synergistic effect in terms of percent control, between two mixing partners (X and Y) can be calculated using the Colby equation (Colby, S. R., 1967, Calculating Synergistic and Antagonistic Responses in Herbicide Combinations, Weeds, 15, 21-22):
(§2) When the observed combined control effect is greater than the expected (calculated) combined control effect (E), then the combined effect is synergistic.
Pots with 0.3 L of volume were filled with soil (SunGro Horticulture, Agawam, Mass. 01001) to grow one plant per pot in the greenhouse until the desired developmental stage. Environmental conditions inside the greenhouse were set up for 25° C., 75% relative humidity, and 12 h light day-1 with natural sunlight or 500 μmol m-1 s-1 PAR (photosynthetically active radiation) for cloudy days. Glufosinate applications were always performed in full sunlight to achieve maximum activity. The test period extended to 2 to 21 days after treatment. During this time, the plants were tended, and their response to the individual treatments was evaluated. The evaluation was carried out by visual control using a scale from 0 to 100. […]

Kochia = assay: Greenhouse post emergence treatment, visual herbicidal activity against Kochia; assay type: in vivo, Bassia scoparia; details: scale from 0 to 100
Text: as §1, §2
Pots with 0.3 L of volume were filled with soil (SunGro Horticulture, Agawam, Mass. 01001) to grow one plant per pot in the greenhouse until the desired developmental stage. Environmental conditions inside the greenhouse were set up for 25° C., 75% relative humidity, and 12 h light day-1 with natural sunlight or 500 μmol m-1 s-1 PAR (photosynthetically active radiation) for cloudy days. Glufosinate applications were always performed in full sunlight to achieve maximum activity. The test period extended to 2 to 21 days after treatment. During this time, the plants were tended, and their response to the individual treatments was evaluated. The evaluation was carried out by visual control using a scale from 0 to 100. 100 means no emergence of the plants or complete destruction of at least the above-ground parts, and 0 means no damage, or normal course of growth. Data shown are the mean of three replications.

## CP(=O)(O)CCC(N)C(=O)O (racemic) [Glufosinate, (2RS)-2-amino-4-[hydroxy(methyl)phosphinoyl]butyric acid]
Velvetleaf; Glufosinate 123 g ai/ha solo, 7 DAT
  Herbicidal activity against Velvetleaf, solo application, % activity: 49%
Velvetleaf; Glufosinate 123 g ai/ha solo, 14 DAT
  Herbicidal activity against Velvetleaf, solo application, % activity: 56%
Velvetleaf; Glufosinate 123 g ai/ha solo, 21 DAT
  Herbicidal activity against Velvetleaf, solo application, % activity: 45%
Waterhemp; Glufosinate 280 g ai/ha solo
  Herbicidal activity against Waterhemp (1 DAT), Found: 18
Kochia; Glufosinate 420 g ai/ha solo
  Herbicidal activity against Kochia (21 DAT), Found: 25

## O=C(O)c1cc(Oc2ccc(C(F)(F)F)cc2Cl)ccc1[N+](=O)[O-] [Acifluorfen]
Velvetleaf; Acifluorfen 7.176 g ai/ha solo, 7 DAT
  Herbicidal activity against Velvetleaf, solo application, % activity: 38%
Velvetleaf; Acifluorfen 7.176 g ai/ha solo, 14 DAT
  Herbicidal activity against Velvetleaf, solo application, % activity: 40%
Velvetleaf; Acifluorfen 7.176 g ai/ha solo, 21 DAT
  Herbicidal activity against Velvetleaf, solo application, % activity: 33%

## CS(=O)(=O)NC(=O)c1cc(Oc2ccc(C(F)(F)F)cc2Cl)ccc1[N+](=O)[O-] [Fomesafen]
Kochia; Fomesafen 7.1 g ai/ha solo
  Herbicidal activity against Kochia (21 DAT), Found: 25

## CCOC(=O)C(C)OC(=O)c1cc(Oc2ccc(C(F)(F)F)cc2Cl)ccc1[N+](=O)[O-] (centres unmarked) [Lactofen]
Waterhemp; Lactofen 5 g ai/ha solo
  Herbicidal activity against Waterhemp (1 DAT), Found: 3
Kochia; Lactofen 5.2 g ai/ha solo
  Herbicidal activity against Kochia (21 DAT), Found: 25
